Source: US6894074B2, “Synergistic insecticidal mixtures” (Bayer Aktiengesellschaft, priority 1999, dated 2005)

Tests used:
Format in all cases: in vivo
[1] = test system: Bemisia tabaci; assay: Field spray test against Bemisia tabaci on cotton, efficacy by the method of Abbott; details: larvae on cotton
Experimental: The spray liquor (1000 l of water/ha) comprising the active compound(s) was applied using a knapsack sprayer operated by pressurized air. The plot size was 19 m^2. The effect was evaluated 7, 10 and 14 days after the application by determining the number of larvae still alive on the leaf undersurface (10 leaves/plot) and calculating the efficacy by the method of Abbott.

[2] = test system: Aphis gossypii; assay: Field spray test against Aphis gossypii on courgettes, efficacy by the method of Abbott; details: 4 spray applications
Experimental: The spray liquor (1000 l of water/ha) comprising the active compound(s) was applied using a knapsack sprayer operated with compressed air. 4 spray applications were carried out at intervals of 9-13 days. The plot size was 12 m^2. The effect on the aphids was determined 7, 16 and 29 days after the last application (start of the infestation after the 2nd treatment) by counting the animals which were still alive/leaf (10 leaves/plot) and calculating the efficacy by the method of Abbott.

[3] = test system: white fly Bemisia tabaci; assay: Bemisia test: infested cotton plants dipped into preparation of active compound, kill in %; details: 4 ppm active compound
Text: The expected activity for a given combinatin of two active compounds can be calculated as follows (according to S. R. Colby, Weeds 15 (1967), 20-22):
If the actual activity exceeds the calculated value, then the activity of the combination is superadditive, i.e. a synergistic effect exists. In this case, the efficacy which was actually observed must be greater than the value for the expected efficacy (E) calculated from the abovementioned formula.
To produce a suitable preparation of active compound, 1 part by weight of active compound is mixed with the stated amounts of solvent and emulsifier, and the concentrate is diluted with water to the desired concentrations.
Cotton plants (Gossypium hirsutum) which are infested by eggs, larvae and puparia of the white fly Bemisia tabaci are dipped into a preparation of active compound of the desired concentration.
After the desired period of time, the kill in % is determined. 100% means that all animals have been killed; 0% means that none of the animals have been killed.

## N#C/N=C1\SCCN1Cc1ccc(Cl)nc1 [IIk]
[1]; 0.096 kg of active compound/ha, 7 days after treatment
  Efficacy % Abbott: 86%
[1]; 0.096 kg of active compound/ha, 10 days after treatment
  Efficacy % Abbott: 61%
[1]; 0.096 kg of active compound/ha, 14 days after treatment
  Efficacy % Abbott: 68%

## O=[N+]([O-])/N=C1\NCCN1Cc1ccc(Cl)nc1 [Ex. (IIa)]
[2]; 0.015 % active compound, 7 days after the last treatment
  Efficacy % Abbott: 100%
[2]; 0.015 % active compound, 16 days after the last treatment
  Efficacy % Abbott: 89%
[2]; 0.015 % active compound, 29 days after the last treatment
  Efficacy % Abbott: 33%
[3]
  Kill in % after 10 d: 0%

## Cc1cc(C)c(C2=C(OC(=O)CC(C)(C)C)C3(CCCC3)OC2=O)c(C)c1 [Ex. (Ia)]
[2]; 0.0144 % active compound, 7 days after the last treatment
  Efficacy % Abbott: 0%
[2]; 0.0144 % active compound, 16 days after the last treatment
  Efficacy % Abbott: 0%
[2]; 0.0144 % active compound, 29 days after the last treatment
  Efficacy % Abbott: 0%
[1]; 0.0096 kg of active compound/ha, 7 days after treatment
  Efficacy % Abbott: 49%
[1]; 0.0096 kg of active compound/ha, 10 days after treatment
  Efficacy % Abbott: 87%
[1]; 0.0096 kg of active compound/ha, 14 days after treatment
  Efficacy % Abbott: 78%
[3]
  Kill in % after 10 d: 0%
